Tests used:
[1] = target: Kappa-type opioid receptor (Homo sapiens, UniProt P41145); assay: DRUGMATRIX: Opiate kappa (OP2, KOP) radioligand binding (ligand: [3H] Diprenorphine); type: cell membranes, HEK293, Membrane; conditions: hek293; Not Active = under 50% inhibition at 10 µM
[2] = target: T1, Adenosine receptor A3 (Homo sapiens, UniProt P0DMS8); type: cell membranes, CHO-K1, Membrane; conditions: cho-k1;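 note: radioligand binding assay with AB-MECA serving as the labeled ligand; in other assays of this panel Not Active means under 50% inhibition at 10 µM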
T1 sequence (P0DMS8 whole entry): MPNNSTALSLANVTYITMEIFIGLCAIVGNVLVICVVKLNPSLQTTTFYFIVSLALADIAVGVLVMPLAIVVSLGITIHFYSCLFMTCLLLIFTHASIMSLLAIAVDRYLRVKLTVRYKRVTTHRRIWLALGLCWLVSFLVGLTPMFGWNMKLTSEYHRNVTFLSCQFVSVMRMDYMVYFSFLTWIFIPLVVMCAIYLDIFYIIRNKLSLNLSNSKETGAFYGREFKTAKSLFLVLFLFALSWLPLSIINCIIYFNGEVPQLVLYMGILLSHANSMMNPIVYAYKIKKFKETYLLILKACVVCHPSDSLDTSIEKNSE

[3] = DRUGMATRIX: GABAA, Muscimol, Central radioligand binding (ligand: [3H] Muscimol); type: cell membranes, Rattus norvegicus, Wistar, Brain, Membrane; conditions: Not Active = under 50% inhibition at 10 µM
[4] = target: Substance-P receptor (Homo sapiens, UniProt P25103); type: cell membranes, CHO, Membrane; conditions: cho; note: in other assays of this panel Not Active means under 50% inhibition at 10 µM
[5] = target: T2, Alpha-1B adrenergic receptor (Rattus norvegicus, UniProt P15823); assay: DRUGMATRIX: Alpha-1B adrenergic receptor radioligand binding (ligand: prazosin); type: cell membranes, Wistar, Liver, Membrane; conditions: Not Active = under 50% inhibition at 10 µM
T2 sequence (P15823 whole entry): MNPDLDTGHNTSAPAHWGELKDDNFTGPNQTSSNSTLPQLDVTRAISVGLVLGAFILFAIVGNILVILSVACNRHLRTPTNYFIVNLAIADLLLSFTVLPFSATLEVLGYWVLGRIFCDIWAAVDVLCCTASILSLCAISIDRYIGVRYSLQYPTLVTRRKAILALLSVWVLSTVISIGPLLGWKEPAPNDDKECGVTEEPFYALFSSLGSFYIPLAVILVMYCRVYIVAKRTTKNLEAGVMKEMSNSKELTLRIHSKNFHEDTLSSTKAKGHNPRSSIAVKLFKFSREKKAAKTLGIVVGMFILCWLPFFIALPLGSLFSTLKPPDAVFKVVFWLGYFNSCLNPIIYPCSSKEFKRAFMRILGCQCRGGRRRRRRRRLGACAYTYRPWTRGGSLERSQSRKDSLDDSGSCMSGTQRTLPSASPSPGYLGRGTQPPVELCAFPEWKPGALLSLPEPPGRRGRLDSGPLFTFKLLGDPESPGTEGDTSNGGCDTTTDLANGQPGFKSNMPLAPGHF

[6] = target: Cytochrome P450 2D6 (Homo sapiens, UniProt P10635); conditions: bti-tn-5b1-4; note: in other assays of this panel Not Active means under 50% inhibition at 10 µM
Chain of Cytochrome P450 2D6 (P10635 whole entry): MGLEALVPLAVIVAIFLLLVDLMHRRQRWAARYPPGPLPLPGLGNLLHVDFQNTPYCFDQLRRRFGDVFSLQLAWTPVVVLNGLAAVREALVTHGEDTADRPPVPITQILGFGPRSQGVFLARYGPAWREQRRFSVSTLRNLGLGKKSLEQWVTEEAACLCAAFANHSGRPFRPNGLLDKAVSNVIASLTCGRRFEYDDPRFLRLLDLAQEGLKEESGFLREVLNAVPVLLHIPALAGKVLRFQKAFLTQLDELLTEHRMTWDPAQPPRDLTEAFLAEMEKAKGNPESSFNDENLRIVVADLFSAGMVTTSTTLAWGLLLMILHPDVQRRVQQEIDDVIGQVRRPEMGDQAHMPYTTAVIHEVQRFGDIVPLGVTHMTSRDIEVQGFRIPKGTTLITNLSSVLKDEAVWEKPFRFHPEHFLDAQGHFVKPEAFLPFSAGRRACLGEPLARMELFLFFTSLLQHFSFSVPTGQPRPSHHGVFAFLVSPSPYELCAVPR

Chain of Kappa-type opioid receptor (P41145 whole entry): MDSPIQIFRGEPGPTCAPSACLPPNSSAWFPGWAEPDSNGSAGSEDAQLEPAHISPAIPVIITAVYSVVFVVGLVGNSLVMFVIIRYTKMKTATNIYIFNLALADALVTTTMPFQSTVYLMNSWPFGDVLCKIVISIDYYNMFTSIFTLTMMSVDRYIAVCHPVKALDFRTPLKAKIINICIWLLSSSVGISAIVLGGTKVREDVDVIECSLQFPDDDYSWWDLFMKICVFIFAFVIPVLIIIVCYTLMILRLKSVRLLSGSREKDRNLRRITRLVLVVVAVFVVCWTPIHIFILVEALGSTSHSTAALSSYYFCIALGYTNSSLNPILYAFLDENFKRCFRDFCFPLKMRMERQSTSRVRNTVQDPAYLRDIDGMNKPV
Chain of Substance-P receptor (P25103 whole entry): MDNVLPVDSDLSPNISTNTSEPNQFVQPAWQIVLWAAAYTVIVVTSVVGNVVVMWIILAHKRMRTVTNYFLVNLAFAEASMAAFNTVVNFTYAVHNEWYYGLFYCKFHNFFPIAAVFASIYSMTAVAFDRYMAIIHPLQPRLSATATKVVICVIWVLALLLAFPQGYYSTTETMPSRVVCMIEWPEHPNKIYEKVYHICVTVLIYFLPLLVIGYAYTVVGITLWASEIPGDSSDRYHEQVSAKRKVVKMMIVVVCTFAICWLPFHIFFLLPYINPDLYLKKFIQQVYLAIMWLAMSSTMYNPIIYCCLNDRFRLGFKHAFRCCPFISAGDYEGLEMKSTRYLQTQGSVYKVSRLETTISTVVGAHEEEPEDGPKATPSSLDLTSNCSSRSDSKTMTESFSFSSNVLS

## O=C(N/N=C/c1ccc([N+](=O)[O-])o1)c1cc([N+](=O)[O-])cc([N+](=O)[O-])c1O [NIFURSOL]
[1]
  IC50: Not Active
[2]
  IC50: Not Active
[3]
  IC50: Not Active
  Ki: Not Active
[4]
  IC50: Not Active
[5]
  IC50: Not Active
[6]
  IC50: Not Active
  Ki: Not Active

## CC(C)NNC(=O)c1ccncc1 [IPRONIAZID]
[1]
  IC50: Not Active
[2]
  IC50: Not Active
[3]
  IC50: Not Active
  Ki: Not Active
[4]
  IC50: Not Active
[5]
  IC50: Not Active
[6]
  IC50: Not Active
  Ki: Not Active

## CC(C(=O)O)c1cccc(Oc2ccccc2)c1 (stereo unspecified) [FENOPROFEN]
[1]
  IC50: Not Active
[2]
  IC50: Not Active
[3]
  IC50: Not Active
  Ki: Not Active
[4]
  IC50: Not Active
[5]
  IC50: Not Active
[6]
  IC50: Not Active
  Ki: Not Active

## O=C(O)CCNC(=O)c1ccccc1 [BETAMIPRON]
[1]
  IC50: Not Active
[2]
  IC50: Not Active
[3]
  IC50: Not Active
  Ki: Not Active
[4]
  IC50: Not Active
[5]
  IC50: Not Active
[6]
  IC50: Not Active
  Ki: Not Active

## C#C[C@]1(OC(C)=O)CC[C@H]2[C@@H]3CCC4=C[C@@H](OC(C)=O)CC[C@@H]4[C@H]3CC[C@@]21C [ETHYNODIOL DIACETATE]
[1]
  IC50: Not Active
[2]
  IC50: Not Active
[3]
  IC50: Not Active
  Ki: Not Active
[4]
  IC50: Not Active
[5]
  IC50: Not Active
[6]
  IC50: Not Active
  Ki: Not Active

## Oc1cccc(O)c1O [PYROGALLOL]
[1]
  IC50: Not Active
[2]
  IC50: Not Active
[3]
  IC50: Not Active
  Ki: Not Active
[4]
  IC50: Not Active
[5]
  IC50: Not Active
[6]
  IC50: Not Active
  Ki: Not Active

## CN/C(=N\CCSCc1nc[nH]c1C)NC#N [CIMETIDINE]
[1]
  IC50: Not Active
[2]
  IC50: Not Active
[3]
  IC50: Not Active
  Ki: Not Active
[4]
  IC50: Not Active
[5]
  IC50: Not Active
[6]
  IC50: Not Active
  Ki: Not Active

## CCCN(CCC)S(=O)(=O)c1ccc(C(=O)O)cc1 [PROBENECID]
[1]
  IC50: Not Active
[2]
  IC50: Not Active
[3]
  IC50: Not Active
  Ki: Not Active
[4]
  IC50: Not Active
[5]
  IC50: Not Active
[6]
  IC50: Not Active
  Ki: Not Active

## C#CC1(O)CC[C@H]2[C@@H]3CCC4=CC(=O)CC[C@@H]4[C@H]3CC[C@@]21CC (stereo partly specified) [NORGESTREL]
[1]
  IC50: Not Active
[2]
  IC50: Not Active
[3]
  IC50: Not Active
  Ki: Not Active
[4]
  IC50: Not Active
[5]
  IC50: Not Active
[6]
  IC50: Not Active
  Ki: Not Active

## CC[C@H]1CN2CCc3cc(OC)c(OC)cc3[C@@H]2C[C@@H]1C[C@H]1NCCc2cc(OC)c(OC)cc21 [EMETINE]
[1]
  IC50: Not Active
[2]
  IC50: Not Active
[3]
  IC50: Not Active
  Ki: Not Active
[4]
  IC50: Not Active
[5]; read-out: IC50
  IC50: 1.93 µM
[5]; read-out: Ki
  Ki: 1.07 µM
[6]
  IC50: Not Active
  Ki: Not Active

Source: ChEMBL document CHEMBL1909046, “DrugMatrix in vitro pharmacology data”
